From patent US20230416248A1, “COMPOUNDS AND USES THEREOF” (Foghorn Therapeutics Inc., priority 2020, published 2023) come the findings set out here.

Structures are written as SMILES. Like-named read-outs stand apart in the source and are kept apart here.

One experiment has as its target T1, BRM (Homo sapiens, UniProt P51531).
T1 construct: made in house; host or cells: High Five insect cells
In words: ATPase catalytic activity of BRM, ADP-Glo in vitro biochemical assay. As to conditions: for IC50: 30 nM BRM, 400 μM ATP; for Ratio* (BRG1 IC50 (μM) divided by BRM IC50 (μM)): selectivity ratio BRG1 IC50 / BRM IC50. In short, it runs like this: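 ADP-Glo luminescence, after depletion of leftover ATP and conversion of ADP, reported the activity. The 1 h room-temperature reaction held 400 μM ATP, 20 nM salmon sperm DNA and 30 nM BRM in 20 mM Tris pH 8, 20 mM MgCl2, 50 mM NaCl, 0.1% Tween-20, 1 mM DTT.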

Another experiment addresses T2, BRG-1 (Homo sapiens, UniProt P51532).
T2 construct: made in house; host or cells: High Five insect cells
Put plainly: ATPase catalytic activity of BRG-1, ADP-Glo in vitro biochemical assay. Conditions: 30 nM BRG-1, 400 μM ATP, read-out: BRG1 IC50. The procedure:
The ATPase catalytic activity of BRM or BRG-1 was measured by an in vitro biochemical assay using ADP-Glo™ (Promega, V9102). The ADP-Glo™ kinase assay is performed in two steps once the reaction is complete. The first step is to deplete any unconsumed ATP in the reaction. The second step is to convert the reaction product ADP to ATP, which will be utilized by the luciferase to generate luminesce and be detected by a luminescence reader, such as Envision.
Then, following addition of 5 μL of ADP-Glo™ Reagent provided in the kit, the reaction incubates at room temperature for 40 minutes. Then, 10 μL of Kinase Detection Reagent provided in the kit is added to convert ADP to ATP, and the reaction incubates at room temperature for 60 minutes. Finally, luminescence measurement is collected with a plate-reading luminometer, such as Envision.

The mark [1] stands for this setting: ATPase catalytic activity, ADP-Glo.

T2 sequence (P51532 whole entry): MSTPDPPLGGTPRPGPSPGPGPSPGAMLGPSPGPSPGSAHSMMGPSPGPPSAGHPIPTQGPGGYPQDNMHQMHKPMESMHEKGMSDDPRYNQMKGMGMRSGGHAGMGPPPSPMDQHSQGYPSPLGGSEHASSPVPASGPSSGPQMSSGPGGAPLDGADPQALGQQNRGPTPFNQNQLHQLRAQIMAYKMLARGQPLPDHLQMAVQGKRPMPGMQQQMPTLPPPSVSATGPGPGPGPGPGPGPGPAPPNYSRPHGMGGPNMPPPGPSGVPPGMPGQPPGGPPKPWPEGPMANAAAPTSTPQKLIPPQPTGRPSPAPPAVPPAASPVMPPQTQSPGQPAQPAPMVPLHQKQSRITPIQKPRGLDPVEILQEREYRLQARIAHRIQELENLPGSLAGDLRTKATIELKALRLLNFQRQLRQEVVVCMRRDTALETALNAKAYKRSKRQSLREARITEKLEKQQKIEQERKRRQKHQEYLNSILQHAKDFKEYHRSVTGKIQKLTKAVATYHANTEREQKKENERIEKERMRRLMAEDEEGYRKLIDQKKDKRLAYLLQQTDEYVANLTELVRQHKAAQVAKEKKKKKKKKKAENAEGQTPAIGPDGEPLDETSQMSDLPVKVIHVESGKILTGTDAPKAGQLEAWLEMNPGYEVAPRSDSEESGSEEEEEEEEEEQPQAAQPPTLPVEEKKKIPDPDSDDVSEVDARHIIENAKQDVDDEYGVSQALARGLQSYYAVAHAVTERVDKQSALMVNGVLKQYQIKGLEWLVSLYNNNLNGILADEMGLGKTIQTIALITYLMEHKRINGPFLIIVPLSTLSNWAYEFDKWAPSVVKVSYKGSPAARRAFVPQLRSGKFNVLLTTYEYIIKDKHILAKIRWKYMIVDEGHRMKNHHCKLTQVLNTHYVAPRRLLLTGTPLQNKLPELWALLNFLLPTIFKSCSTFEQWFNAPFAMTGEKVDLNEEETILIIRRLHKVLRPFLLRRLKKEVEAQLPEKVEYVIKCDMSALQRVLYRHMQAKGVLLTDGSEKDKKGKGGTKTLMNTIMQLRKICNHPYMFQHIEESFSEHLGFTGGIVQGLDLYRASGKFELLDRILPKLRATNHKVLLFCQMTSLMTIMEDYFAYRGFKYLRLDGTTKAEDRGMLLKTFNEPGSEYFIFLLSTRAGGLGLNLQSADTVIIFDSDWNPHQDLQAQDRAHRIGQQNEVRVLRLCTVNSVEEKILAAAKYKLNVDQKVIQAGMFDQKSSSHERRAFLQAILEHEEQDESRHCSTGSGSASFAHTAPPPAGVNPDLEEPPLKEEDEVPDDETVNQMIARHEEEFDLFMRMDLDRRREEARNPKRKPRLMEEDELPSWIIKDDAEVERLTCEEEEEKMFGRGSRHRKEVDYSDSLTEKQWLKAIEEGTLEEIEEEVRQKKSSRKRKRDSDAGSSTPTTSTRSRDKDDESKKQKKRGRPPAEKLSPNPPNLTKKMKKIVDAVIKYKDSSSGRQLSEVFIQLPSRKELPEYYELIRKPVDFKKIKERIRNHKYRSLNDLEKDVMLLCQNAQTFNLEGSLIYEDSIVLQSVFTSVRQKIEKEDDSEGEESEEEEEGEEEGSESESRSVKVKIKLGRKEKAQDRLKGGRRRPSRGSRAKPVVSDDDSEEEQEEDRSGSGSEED
T1 sequence (P51531 whole entry): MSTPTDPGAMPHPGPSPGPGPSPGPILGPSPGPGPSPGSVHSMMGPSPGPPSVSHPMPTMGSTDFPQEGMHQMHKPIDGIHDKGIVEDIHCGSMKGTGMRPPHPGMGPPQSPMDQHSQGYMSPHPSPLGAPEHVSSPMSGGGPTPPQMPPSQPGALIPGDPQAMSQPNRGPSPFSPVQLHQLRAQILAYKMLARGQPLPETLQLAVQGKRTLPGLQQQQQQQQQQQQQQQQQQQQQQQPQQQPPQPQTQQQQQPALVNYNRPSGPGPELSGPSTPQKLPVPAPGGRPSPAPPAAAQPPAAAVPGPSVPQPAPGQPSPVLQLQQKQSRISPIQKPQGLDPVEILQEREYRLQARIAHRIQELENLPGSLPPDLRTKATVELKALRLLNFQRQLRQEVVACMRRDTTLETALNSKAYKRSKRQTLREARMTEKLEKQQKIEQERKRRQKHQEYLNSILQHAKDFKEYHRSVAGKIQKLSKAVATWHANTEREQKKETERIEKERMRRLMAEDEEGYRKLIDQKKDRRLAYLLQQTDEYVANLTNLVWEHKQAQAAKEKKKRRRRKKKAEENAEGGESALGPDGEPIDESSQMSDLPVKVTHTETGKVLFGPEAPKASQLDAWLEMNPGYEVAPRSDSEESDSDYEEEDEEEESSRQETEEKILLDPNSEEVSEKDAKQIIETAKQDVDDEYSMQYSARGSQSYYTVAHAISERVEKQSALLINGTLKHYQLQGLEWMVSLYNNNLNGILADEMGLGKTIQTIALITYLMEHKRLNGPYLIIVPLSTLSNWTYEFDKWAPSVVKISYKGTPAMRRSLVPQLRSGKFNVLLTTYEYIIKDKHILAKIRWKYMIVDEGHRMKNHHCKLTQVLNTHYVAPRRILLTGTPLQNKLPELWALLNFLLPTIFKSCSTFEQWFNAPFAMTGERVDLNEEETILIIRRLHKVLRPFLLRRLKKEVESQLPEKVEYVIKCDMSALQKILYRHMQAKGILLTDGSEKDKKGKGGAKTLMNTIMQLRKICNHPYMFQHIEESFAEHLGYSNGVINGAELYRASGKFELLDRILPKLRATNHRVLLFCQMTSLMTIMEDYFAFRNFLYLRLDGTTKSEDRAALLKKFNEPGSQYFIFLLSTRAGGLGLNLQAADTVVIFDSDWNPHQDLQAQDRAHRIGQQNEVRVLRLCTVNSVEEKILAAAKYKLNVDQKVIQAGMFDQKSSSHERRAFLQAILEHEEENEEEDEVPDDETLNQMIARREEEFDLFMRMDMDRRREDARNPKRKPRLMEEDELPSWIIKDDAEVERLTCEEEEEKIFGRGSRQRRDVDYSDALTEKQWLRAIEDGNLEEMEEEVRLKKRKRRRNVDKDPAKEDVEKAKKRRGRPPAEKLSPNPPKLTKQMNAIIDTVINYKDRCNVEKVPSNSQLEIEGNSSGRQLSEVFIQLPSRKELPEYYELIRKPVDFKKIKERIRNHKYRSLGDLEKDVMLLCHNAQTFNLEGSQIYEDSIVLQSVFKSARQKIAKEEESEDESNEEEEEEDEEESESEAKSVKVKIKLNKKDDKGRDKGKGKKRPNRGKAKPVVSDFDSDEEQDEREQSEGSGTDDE

In the case of `O=C(NCc1cc2nc(N3CCOc4c3cnc(C3CC3)c4F)ccc2cn1)c1ccc2c(c1)S(=O)(=O)CCOC2` [Compound 813], the figures for the IC50 against BRM (ADP-Glo ATPase assay) and on BRG-1 (ADP-Glo ATPase assay) were 38.1 nM and 477 nM, respectively. At BRM (ratio BRG1 IC50 / BRM IC50), the “Ratio*” value worked out at 12.52.

As for `COC1CCS(=O)(=O)c2cc(C(=O)NCc3cc4nc(-c5cccc(N6C[C@@H](C)O[C@@H](C)C6)n5)ccc4cn3)ccc2C1` (stereo partly drawn) [Compound 344], the IC50 was found to be 7.6 nM on BRM (setting [1]) and 20.3 nM at BRG-1 (setting [1]). In addition, at BRM (ratio of BRG1 IC50 to BRM IC50), the “Ratio*” value was 2.68.

`C[C@@H]1CN(c2cccc(-c3ccc4cnc(CNC(=O)c5ccc6c(c5)S(=O)(=O)CCC5(CC5)O6)cc4n3)n2)C[C@H](C)O1` [Compound 704]: the IC50 on BRM (ADP-Glo ATPase assay) stood at 91.1 nM; at BRG-1 (ADP-Glo ATPase assay) it was 2110 nM. The “Ratio*” value at BRM (ratio BRG1 IC50 / BRM IC50) was 23.18.

As for `O=C(NCc1cc2nc(-c3cccc(Cl)c3)ccc2cn1)c1ccc2c(c1)S(=O)(=O)CCOC2` [Compound 258], the IC50 turned out to be 221 nM against BRM (ADP-Glo ATPase assay) and 4120 nM on BRG-1 (ADP-Glo ATPase assay). For the same molecule, the “Ratio* (BRG1 IC50 (μM) divided by BRM IC50 (μM))” value at BRM worked out at 18.63.

Regarding `COC[C@@H]1C[C@@H]1N(C)c1cccc(-c2ccc3cnc(CNC(=O)c4ccc5c(c4)S(=O)(=O)CCOC5)cc3n2)n1` [Compound 413], the figures for the IC50 against BRM (setting [1]) and at BRG-1 (setting [1]) were 12.9 nM and 210 nM, respectively. Besides, the “Ratio*” value at BRM (ratio of BRG1 IC50 to BRM IC50) came out at 16.27.

As to `O=C(NCc1cc2nc(-c3cccc(C4CCOCC4)n3)ccc2cn1)c1ccc2c(c1)S(=O)(=O)CCOC2` [Compound 133], the IC50 amounted to 61.5 nM at BRM (ADP-Glo ATPase assay) and 487 nM at BRG-1 (ADP-Glo ATPase assay). Moreover, the “Ratio* (BRG1 IC50 (μM) divided by BRM IC50 (μM))” value on BRM is given as 7.91.

For the molecule `Cn1ccc(-c2cccc(-c3ccc4cnc(CNC(=O)c5ccc6c(c5)S(=O)(=O)CCOC6)cc4n3)c2)n1` [Compound 244], the IC50 on BRM (ADP-Glo ATPase assay) was 20.7 nM; at BRG-1 (ADP-Glo ATPase assay) it was 337 nM. For the same molecule, the “Ratio* (BRG1 IC50 (μM) divided by BRM IC50 (μM))” value on BRM worked out at 16.32.

As for `CC(F)(F)c1cccc(-c2ccc3cnc(CNC(=O)c4ccc5c(c4)S(=O)(=O)CCOC5)cc3n2)n1` [Compound 281], the IC50 stood at 82.8 nM against BRM (ADP-Glo ATPase assay) and 1650 nM at BRG-1 (ADP-Glo ATPase assay). Moreover, the “Ratio* (BRG1 IC50 (μM) divided by BRM IC50 (μM))” value at BRM amounted to 19.92.

`O=C(NCc1cc2nc(N3CCOc4cc(N5CCC5)ncc43)ccc2cn1)c1ccc2c(c1)S(=O)(=O)CCOC2` [Compound 834]: the IC50 was found to be 20.2 nM at BRM (ADP-Glo ATPase assay) and 291 nM on BRG-1 (ADP-Glo ATPase assay). Also, at BRM (ratio BRG1 IC50 / BRM IC50), the “Ratio*” value came out at 14.40.

For `Cc1cc(C(=O)NCc2cc3nc(-c4cccc(N5C[C@@H](C)O[C@@H](C)C5)n4)ccc3cn2)cc2c1COC[C@H](C)S2(=O)=O` [Compound 457], the results for the IC50 against BRM (setting [1]) and at BRG-1 (setting [1]) were 5.9 nM and 48.3 nM, respectively. In addition, the “Ratio*” value at BRM (ratio of BRG1 IC50 to BRM IC50) is given as 8.14.

For `CC(=O)N1CCOc2c(-c3ccc4cnc(CNC(=O)c5ccc6c(c5)S(=O)(=O)CCOC6)cc4n3)cccc21` [Compound 185], the IC50 at BRM (ADP-Glo ATPase assay) is 357 nM; at BRG-1 (ADP-Glo ATPase assay), 1340 nM. Moreover, the “Ratio* (BRG1 IC50 (μM) divided by BRM IC50 (μM))” value at BRM was found to be 3.75.

As for `O=C(NCc1cc2nc(N3CCOc4ccc([C@H]5CC5(F)F)nc43)ccc2cn1)c1ccc2c(c1)S(=O)(=O)CCOC2` [Compound 700], the IC50 stood at 14.5 nM against BRM (setting [1]) and 758 nM on BRG-1 (setting [1]). The “Ratio*” value at BRM (ratio of BRG1 IC50 to BRM IC50) turned out to be 52.11.

`O=C(NCc1cc2nc(-c3cccc(C4(F)COC4)n3)ccc2cn1)c1ccc2c(c1)S(=O)(=O)CCOC2` [Compound 142]: the IC50 at BRM (ADP-Glo ATPase assay) amounted to 230 nM; on BRG-1 (ADP-Glo ATPase assay), 2660 nM. Besides, the “Ratio* (BRG1 IC50 (μM) divided by BRM IC50 (μM))” value at BRM is reported as 11.55.

In the case of `O=C(NCc1cc2nc(-c3cccc(N4CC[C@@H](F)C4)n3)ccc2cn1)c1ccc2c(c1)S(=O)(=O)CCOC2` [Compound 222], the IC50 at BRM (ADP-Glo ATPase assay) amounted to 12.9 nM; on BRG-1 (ADP-Glo ATPase assay) it was 136 nM. Moreover, the “Ratio* (BRG1 IC50 (μM) divided by BRM IC50 (μM))” value on BRM came out at 10.58.

As for `CC1CN(c2cccc(-c3ccc4cnc(CNC(=O)c5cnc6c(c5)S(=O)(=O)C(C)CC6)cc4n3)n2)CC(C)O1` (stereo not drawn) [Compound 597], the IC50 at BRM (setting [1]) stood at 41.3 nM; on BRG-1 (setting [1]) it was 479 nM. Also, on BRM (ratio of BRG1 IC50 to BRM IC50), the “Ratio*” value came to 11.61.

As to `O=C(NCc1cc2nc(-c3cccc(N4CC[C@H]5C[C@H]5C4)n3)ccc2cn1)c1ccc2c(c1)S(=O)(=O)CCOC2` [Compound 322], the IC50 at BRM (setting [1]) was determined as 11 nM; at BRG-1 (setting [1]) it was 120 nM. Besides, at BRM (ratio of BRG1 IC50 to BRM IC50), the “Ratio*” value stood at 10.96.

On to `O=C(NCc1cc2nc(N3CCOc4cc(C5CC5)ccc43)ccc2cn1)c1ccc2c(c1)S(=O)(=O)CCOC2` [Compound 481], for which the IC50 against BRM (setting [1]) was 13.2 nM; at BRG-1 (setting [1]), 113 nM. The “Ratio*” value at BRM (ratio of BRG1 IC50 to BRM IC50) is recorded as 8.58.

As to `COc1nn(C2COC2)cc1-c1ccc2cnc(CNC(=O)c3ccc4c(c3)S(=O)(=O)CCOC4)cc2c1` [Compound 261], the IC50 against BRM (ADP-Glo ATPase assay) stood at 16.5 nM; on BRG-1 (ADP-Glo ATPase assay), 233 nM. Besides, the “Ratio* (BRG1 IC50 (μM) divided by BRM IC50 (μM))” value on BRM was found to be 14.10.

As for `C[C@@H]1CC(c2cccc(-c3ccc4cnc(CNC(=O)c5ccc6c(c5)S(=O)(=O)CCOC6)cc4n3)n2)=C[C@H](C)O1` [Compound 46], the IC50 was 9.3 nM against BRM (ADP-Glo ATPase assay) and 45.9 nM on BRG-1 (ADP-Glo ATPase assay). In addition, the “Ratio* (BRG1 IC50 (μM) divided by BRM IC50 (μM))” value on BRM stood at 4.92.

In the case of `O=C(NCc1cc2nc(N3CCn4ncc(C5CC5)c4C3)ccc2cn1)c1ccc2c(c1)S(=O)(=O)CCOC2` [Compound 744], the IC50 on BRM (ADP-Glo ATPase assay) is 432 nM; on BRG-1 (ADP-Glo ATPase assay) it was 3940 nM. For the same molecule, at BRM (ratio BRG1 IC50 / BRM IC50), the “Ratio*” value worked out at 9.13.

In the case of `Cc1cnc2c(c1)N(C)CCN2c1ccc2cnc(CNC(=O)c3ccc4c(c3)S(=O)(=O)CCOC4)cc2n1` [Compound 618], the results for the IC50 on BRM (setting [1]) and on BRG-1 (setting [1]) were 9 nM and 126 nM, respectively. Moreover, the “Ratio*” value at BRM (ratio of BRG1 IC50 to BRM IC50) was found to be 14.00.

Regarding `COc1ccc(-c2ccc3cnc(CNC(=O)c4ccc5c(c4)S(=O)(=O)CCOC5)cc3n2)nc1` [Compound 850], the IC50 on BRM (ADP-Glo ATPase assay) came to 664 nM; at BRG-1 (ADP-Glo ATPase assay) it was 4560 nM. The “Ratio*” value at BRM (ratio BRG1 IC50 / BRM IC50) stood at 6.87.

On to `CCOc1nc(-c2ccc3cnc(CNC(=O)c4ccc5c(c4)S(=O)(=O)CCOC5)cc3n2)ccc1Cl` [Compound 493], for which the IC50 against BRM (setting [1]) stood at 179 nM; on BRG-1 (setting [1]) it was 921 nM. For the same molecule, the “Ratio*” value at BRM (ratio of BRG1 IC50 to BRM IC50) amounted to 5.15.

For `C[C@@H]1CN(c2cccc(-c3ccc4cnc(CNC(=O)c5ccc6c(c5)S(=O)(=O)CCN(C)C6)cc4n3)n2)C[C@H](C)O1` [Compound 51], the IC50 against BRM (ADP-Glo ATPase assay) came out at 34.9 nM; on BRG-1 (ADP-Glo ATPase assay) it was 200 nM. Also, the “Ratio* (BRG1 IC50 (μM) divided by BRM IC50 (μM))” value on BRM turned out to be 5.74.

Turning to `O=C(NCc1cc2nc(-c3ccc4c(n3)OCC4)ccc2cn1)c1ccc2c(c1)S(=O)(=O)CCOC2` [Compound 139], the figures for the IC50 against BRM (ADP-Glo ATPase assay) and on BRG-1 (ADP-Glo ATPase assay) were 432 nM and 2070 nM, respectively. The “Ratio* (BRG1 IC50 (μM) divided by BRM IC50 (μM))” value on BRM came to 4.81.

Take `COCc1nc2c(cc1C)CCCN2c1ccc2cnc(CNC(=O)c3ccc4c(c3)S(=O)(=O)CCOC4)cc2n1` [Compound 626]: the IC50 against BRM (setting [1]) was found to be 20 nM; on BRG-1 (setting [1]) it was 461 nM. Also, at BRM (ratio of BRG1 IC50 to BRM IC50), the “Ratio*” value was determined as 23.08.

Consider `COc1nn([C@H]2C[C@H](F)C2)cc1-c1ccc2cnc(CNC(=O)c3ccc4c(c3)S(=O)(=O)CCOC4)cc2c1` [Compound 149], for which the IC50 turned out to be 36.6 nM against BRM (ADP-Glo ATPase assay) and 810 nM on BRG-1 (ADP-Glo ATPase assay). Besides, the “Ratio* (BRG1 IC50 (μM) divided by BRM IC50 (μM))” value at BRM is given as 22.13.

In the case of `O=C(NCc1cc2nc(-c3cccc(C4(C(F)F)CC4)n3)ccc2cn1)c1ccc2c(c1)S(=O)(=O)CCOC2` [Compound 208], the concentration for half-maximal inhibition (IC50) against BRM (ADP-Glo ATPase assay) was found to be 42.7 nM; at BRG-1 (ADP-Glo ATPase assay), 377 nM. For the same molecule, the “Ratio* (BRG1 IC50 (μM) divided by BRM IC50 (μM))” value at BRM was 8.84.
